Source: US9624182B2, “Compounds as lysophosphatidic acid receptor antagonists” (Amira Pharmaceuticals, Inc., priority 2009, dated 2017)

Biological target: T1, human LPA1 (Homo sapiens, UniProt Q92633)
T1 construct: the full-length cDNA for human LPA1 was obtained by PCR of the reverse transcription reaction; expressed in transfected cells
Assay: LPA1 calcium flux assay
Format: cell-based
Conditions: CHO cells expressing human LPA1, stimulated with 10 nM LPA; read-out: HLPA1 Ca Flux IC50
In short: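 CHO cells stably expressing cloned human LPA1, serum-starved overnight, loaded with Calcium 4 dye 1 h at 37 °C in HBSS/20 mM Hepes with 0.3% fatty-acid-free HSA. Compounds preincubated 30 min at room temperature, then cells stimulated with 10 nM LPA; intracellular Ca2+ read by fluorescence. IC50 from titration curves.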

T1 sequence (Q92633 whole entry): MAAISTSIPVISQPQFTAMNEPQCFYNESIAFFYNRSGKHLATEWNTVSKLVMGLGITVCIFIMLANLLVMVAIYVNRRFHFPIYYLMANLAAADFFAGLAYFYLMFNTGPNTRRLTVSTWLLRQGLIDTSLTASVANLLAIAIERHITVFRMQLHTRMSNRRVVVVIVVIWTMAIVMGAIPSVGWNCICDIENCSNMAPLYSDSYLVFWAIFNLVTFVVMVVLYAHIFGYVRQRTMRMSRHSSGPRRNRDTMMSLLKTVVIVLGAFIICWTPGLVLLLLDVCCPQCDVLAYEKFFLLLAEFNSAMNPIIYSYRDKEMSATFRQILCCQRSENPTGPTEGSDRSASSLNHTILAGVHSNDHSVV

Row | IC50 [nM] | SMILES
1 | 300 to 1000 | C=CCCC(C)Nc1c(C)noc1-c1ccc(-c2ccc(C3(CC(=O)O)CC3)cc2)cc1 (stereo not drawn) [Compound 1-226, (1-{4′-[3-Methyl-4-(1-methyl-pent-4-enylamino)-isoxazol-5-yl]-biphenyl-4-yl}-cyclopropyl)-acetic acid]
2 | < 300 | C=CCCC(C)Nc1c(C)noc1-c1ccc(-c2ccc(C3(C(=O)O)CC3)cc2)cc1 (stereo not drawn) [Compound 1-227, 1-{4′-[3-Methyl-4-(1-methyl-pent-4-enylamino)-isoxazol-5-yl]-biphenyl-4-yl}-cyclopropanecarboxylic acid]
3 | 1000 to 50000 | C=CCCC(C)Nc1c(C)noc1-c1ccc(-c2ccccc2CC(=O)O)cc1 (stereo not drawn) [Compound 1-228, {4′-[3-Methyl-4-(1-methyl-pent-4-enylamino)-isoxazol-5-yl]-biphenyl-2-yl}-acetic acid]
4 | > 50000 | Cc1noc(-c2ccc(-c3ccc(C4(CC(=O)O)CC4)cc3)cc2)c1NC(C)CCCO (stereo not drawn) [Compound 1-229, (1-{4′-[4-(4-Hydroxy-1-methyl-butylamino)-3-methyl-isoxazol-5-yl]-biphenyl-4-yl}-cyclopropyl)-acetic acid]
5 | 1000 to 50000 | Cc1noc(-c2ccc(-c3ccc(C4(C(=O)O)CC4)cc3)cc2)c1NC(C)CCCO (stereo not drawn) [Compound 1-230, 1-{4′-[4-(4-Hydroxy-1-methyl-butylamino)-3-methyl-isoxazol-5-yl]-biphenyl-4-yl}-cyclopropanecarboxylic acid]
6 | 1000 to 50000 | Cc1noc(-c2ccc(-c3ccccc3CC(=O)O)cc2)c1NC(C)CCCO (stereo not drawn) [Compound 1-231, {4′-[4-(4-Hydroxy-1-methyl-butylamino)-3-methyl-isoxazol-5-yl]-biphenyl-2-yl}-acetic acid]
7 | > 50000 | Cc1noc(-c2ccc(-c3ccccc3CC(=O)O)cc2)c1NC(C)CCc1ccc2c(c1)OCO2 (stereo not drawn) [Compound 1-232, {4′-[4-(3-Benzo[1,3]dioxol-5-yl-1-methyl-propylamino)-3-methyl-isoxazol-5-yl]-biphenyl-2-yl}-acetic acid]
8 | 1000 to 50000 | COc1ccc(CC(C)Nc2c(C)noc2-c2ccc(-c3ccccc3CC(=O)O)cc2)cc1 (stereo not drawn) [Compound 1-238, (4′-{4-[2-(4-Methoxy-phenyl)-1-methyl-ethylamino]-3-methyl-isoxazol-5-yl}-biphenyl-2-yl)-acetic acid]

The remaining lines, values behind:

Row | SMILES | IC50 [nM]
9 | Cc1noc(-c2ccc(-c3ccc(C4(C(=O)O)CC4)cc3)cc2)c1NC(CCc1ccccc1)c1ccccc1 (stereo not drawn) [Compound 1-214, 1-{4′-[4-(1,3-Diphenyl-propylamino)-3-methyl-isoxazol-5-yl]-biphenyl-4-yl}-cyclopropanecarboxylic acid] | 300 to 1000
10 | Cc1noc(-c2ccc(-c3ccc(C4CC4C(=O)O)cc3)cc2)c1[C@@H](O)COCc1ccccc1 (stereo partly drawn) [Compound 1-215, (cis)-2-{4′-[4-((R)-2-Benzyloxy-1-hydroxy-ethyl)-3-methyl-isoxazol-5-yl]-biphenyl-4-yl}-cyclopropanecarboxylic acid] | < 300
11 | Cc1noc(-c2ccc(-c3ccc(C4(CC(=O)O)CC4)cc3)cc2)c1NC(C)CCc1ccc(Cl)cc1 (stereo not drawn) [Compound 1-218, [1-(4′-{4-[3-(4-Chloro-phenyl)-1-methyl-propylamino]-3-methyl-isoxazol-5-yl}-biphenyl-4-yl)-cyclopropyl]-acetic acid] | < 300
12 | Cc1noc(-c2ccc(-c3ccc(C4(CC(=O)O)CC4)cc3)cc2)c1NC(C)CCc1c(F)cccc1Cl (stereo not drawn) [Compound 1-219, [1-(4′-{4-[3-(2-Chloro-6-fluoro-phenyl)-1-methyl-propylamino]-3-methyl-isoxazol-5-yl}-biphenyl-4-yl)-cyclopropyl]-acetic acid] | < 300
13 | Cc1noc(-c2ccc(-c3ccc(C4(CC(=O)O)CC4)cc3)cc2)c1NC(C)CCc1ccccc1Cl (stereo not drawn) [Compound 1-222, [1-(4′-{4-[3-(2-Chloro-phenyl)-1-methyl-propylamino]-3-methyl-isoxazol-5-yl}-biphenyl-4-yl)-cyclopropyl]-acetic acid] | < 300
14 | Cc1noc(-c2ccc(-c3ccc(C4(CC(=O)O)CC4)cc3)cc2)c1NC(C)CCc1ccc2c(c1)OCO2 (stereo not drawn) [Compound 1-233, (1-{4′-[4-(3-Benzo[1,3]dioxol-5-yl-1-methyl-propylamino)-3-methyl-isoxazol-5-yl]-biphenyl-4-yl}-cyclopropyl)-acetic acid] | < 300
15 | COc1ccc(CC(C)Nc2c(C)noc2-c2ccc(-c3ccc(C4(CC(=O)O)CC4)cc3)cc2)cc1 (stereo not drawn) [Compound 1-236, [1-(4′-{4-[2-(4-Methoxy-phenyl)-1-methyl-ethylamino]-3-methyl-isoxazol-5-yl}-biphenyl-4-yl)-cyclopropyl]-acetic acid] | 1000 to 50000
16 | COc1ccc(CC(C)Nc2c(C)noc2-c2ccc(-c3ccc(C4(C(=O)O)CC4)cc3)cc2)cc1 (stereo not drawn) [Compound 1-237] | 1000 to 50000
17 | Cc1noc(-c2ccc(-c3ccc(CC(=O)O)cc3)cc2)c1C(O)COCc1cccc(C(F)(F)F)c1 (stereo not drawn) [Compound 1-241, (4′-{4-[1-Hydroxy-2-(3-trifluoromethyl-benzyloxy)-ethyl]-3-methyl-isoxazol-5-yl}-biphenyl-4-yl)-acetic acid] | 1000 to 50000
18 | Cc1noc(-c2ccc(-c3ccc(CCC(=O)O)cc3)cc2)c1C(O)COCc1cccc(C(F)(F)F)c1 (stereo not drawn) [Compound 1-242, 3-(4′-{4-[1-Hydroxy-2-(3-trifluoromethyl-benzyloxy)-ethyl]-3-methyl-isoxazol-5-yl}-biphenyl-4-yl)-propionic acid] | 300 to 1000
19 | Cc1noc(-c2ccc(-c3ccc(C4(CC(=O)O)CC4)cc3)cc2)c1C(O)COCc1cccc(C(F)(F)F)c1 (stereo not drawn) [Compound 1-244, [1-(4′-{4-[1-Hydroxy-2-(3-trifluoromethyl-benzyloxy)-ethyl]-3-methyl-isoxazol-5-yl}-biphenyl-4-yl)-cyclopropyl]-acetic acid] | < 300
20 | Cc1noc(-c2ccc(-c3ccc(C(=O)CCC(=O)O)cc3)cc2)c1C(O)CCCc1ccccc1 (stereo not drawn) [Compound 1-245, 4-{4′-[4-(1-Hydroxy-4-phenyl-butyl)-3-methyl-isoxazol-5-yl]-biphenyl-4-yl}-4-oxo-butyric acid] | 1000 to 50000
21 | Cc1noc(-c2ccc(-c3ccc(C4(CC(=O)O)CC4)cc3)cc2)c1C(O)CC(C)(C)c1ccccc1 (stereo not drawn) [Compound 1-246, (1-{4′-[4-(1-Hydroxy-3-methyl-3-phenyl-butyl)-3-methyl-isoxazol-5-yl]-biphenyl-4-yl}-cyclopropyl)-acetic acid] | 1000 to 50000
22 | COc1ccc(CCC(O)c2c(C)noc2-c2ccc(-c3ccc(C4(CC(=O)O)CC4)cc3)cc2)cc1 (stereo not drawn) [Compound 1-247, [1-(4′-{4-[1-Hydroxy-3-(4-methoxy-phenyl)-propyl]-3-methyl-isoxazol-5-yl}-biphenyl-4-yl)-cyclopropyl]-acetic acid] | 1000 to 50000
23 | Cc1noc(-c2ccc(-c3ccc(C4(C(=O)O)CC4)cc3)cc2)c1C(O)C(=O)NCCc1ccccc1 (stereo not drawn) [Compound 1-249, 1-{4′-[4-(Hydroxy-phenethylcarbamoyl-methyl)-3-methyl-isoxazol-5-yl]-biphenyl-4-yl}-cyclopropanecarboxylic acid] | < 300
24 | Cc1noc(-c2ccc(-c3ccc(CC4(C(=O)O)CC4)cc3)cc2)c1C(O)CCCc1ccccc1 (stereo not drawn) [Compound 1-250, 1-{4′-[4-(1-Hydroxy-4-phenyl-butyl)-3-methyl-isoxazol-5-yl]-biphenyl-4-ylmethyl}-cyclopropanecarboxylic acid] | < 300
